Measurements from patent EP0384722A1, “Chemical compositions” (PITMAN-MOORE LIMITED, priority 1989, dated 1990).

Experiment: Bioavailability in dogs of two injectable formulations (GF s/c, OS i/m) of Compound A and Sulphadimethoxine (serum levels)
Type: in vivo
Conditions: 30mg total a.i./kg
Experimental: GF = Solution in glycofurol of Compound A 2% w/v and sulphadimethoxine (SDM), 10% w/v; OS = Suspension in Miglyol 812 of Compound A, 2% w/v and SDM, 10% w/v
Six adult beagles (three male, three female, including Dogs 1 to 4 of Example 1) and six adult male cats, housed in Coopers' kennels were in all cases given a single injection at 30mg. total a.i./kg. bodyweight, i.e. 1ml./4kg. The glycofurol solution (GF) was injected s/c in the dorsal neck region and the oily suspension (OS) was injected i/m in the quadriceps (anterior thigh) muscles.
Blood samples (jugular venous samples or on some occasions from the cats, cephalic vein samples) were collected before and after injection at the times indicated in Tables 5 to 8).
A standard well-plate bio-assay method was used for Compound A, SDM being estimated by the Bratton-Marshall method. (The bio-assay method cannot distinguish between parent compound and any active metabolites present, but the results are expressed as mg/L Compound A).

Serum concentrations of SDM (dog No.1, GF s/c, 0 hours p.i.): 0 ng/mL
Serum concentrations of SDM (dog No.1, GF s/c, 1 hours p.i.): 82000 ng/mL
Serum concentrations of SDM (dog No.1, GF s/c, 4 hours p.i.): 95000 ng/mL
Serum concentrations of SDM (dog No.1, GF s/c, 7 hours p.i.): 99000 ng/mL
Serum concentrations of SDM (dog No.1, GF s/c, 24 hours p.i.): 47000 ng/mL
Serum concentrations of SDM (dog No.1, GF s/c, 28 hours p.i.): 34000 ng/mL
Serum concentrations of SDM (dog No.1, GF s/c, 31 hours p.i.): 30000 ng/mL
Serum concentrations of SDM (dog No.1, GF s/c, 48 hours p.i.): 24000 ng/mL
Serum concentrations of SDM (dog No.1, GF s/c, 55 hours p.i.): 17000 ng/mL
Serum concentrations of SDM (dog No.1, GF s/c, 72 hours p.i.): 14000 ng/mL
Serum concentrations of SDM (dog No.2, OS i/m, 0 hours p.i.): 0 ng/mL
Serum concentrations of SDM (dog No.2, OS i/m, 1 hours p.i.): 5000 ng/mL
Serum concentrations of SDM (dog No.2, OS i/m, 4 hours p.i.): 23000 ng/mL
Serum concentrations of SDM (dog No.2, OS i/m, 7 hours p.i.): 35000 ng/mL
Serum concentrations of SDM (dog No.2, OS i/m, 24 hours p.i.): 34000 ng/mL
Serum concentrations of SDM (dog No.2, OS i/m, 28 hours p.i.): 31000 ng/mL
Serum concentrations of SDM (dog No.2, OS i/m, 31 hours p.i.): 29000 ng/mL
Serum concentrations of SDM (dog No.2, OS i/m, 48 hours p.i.): 35000 ng/mL
Serum concentrations of SDM (dog No.2, OS i/m, 55 hours p.i.): 27000 ng/mL
Serum concentrations of SDM (dog No.2, OS i/m, 72 hours p.i.): 6000 ng/mL
Serum concentrations of SDM (dog No.3, GF s/c, 0 hours p.i.): 0 ng/mL
Serum concentrations of SDM (dog No.3, GF s/c, 1 hours p.i.): 21000 ng/mL
Serum concentrations of SDM (dog No.3, GF s/c, 4 hours p.i.): 90000 ng/mL
Serum concentrations of SDM (dog No.3, GF s/c, 7 hours p.i.): 99000 ng/mL
Serum concentrations of SDM (dog No.3, GF s/c, 24 hours p.i.): 51000 ng/mL
Serum concentrations of SDM (dog No.3, GF s/c, 28 hours p.i.): 40000 ng/mL
Serum concentrations of SDM (dog No.3, GF s/c, 31 hours p.i.): 30000 ng/mL
Serum concentrations of SDM (dog No.3, GF s/c, 48 hours p.i.): 19000 ng/mL
Serum concentrations of SDM (dog No.3, GF s/c, 55 hours p.i.): 12000 ng/mL
Serum concentrations of SDM (dog No.3, GF s/c, 72 hours p.i.): 21000 ng/mL
Serum concentrations of SDM (dog No.4, OS i/m, 0 hours p.i.): 0 ng/mL
Serum concentrations of SDM (dog No.4, OS i/m, 1 hours p.i.): 7000 ng/mL
Serum concentrations of SDM (dog No.4, OS i/m, 4 hours p.i.): 26000 ng/mL
Serum concentrations of SDM (dog No.4, OS i/m, 7 hours p.i.): 36000 ng/mL
Serum concentrations of SDM (dog No.4, OS i/m, 24 hours p.i.): 38000 ng/mL
Serum concentrations of SDM (dog No.4, OS i/m, 28 hours p.i.): 37000 ng/mL
Serum concentrations of SDM (dog No.4, OS i/m, 31 hours p.i.): 35000 ng/mL
Serum concentrations of SDM (dog No.4, OS i/m, 48 hours p.i.): 26000 ng/mL
Serum concentrations of SDM (dog No.4, OS i/m, 55 hours p.i.): 19000 ng/mL
Serum concentrations of SDM (dog No.4, OS i/m, 72 hours p.i.): 10000 ng/mL
Serum concentrations of SDM (dog No.5, OS i/m, 0 hours p.i.): 0 ng/mL
Serum concentrations of SDM (dog No.5, OS i/m, 1 hours p.i.): 12000 ng/mL
Serum concentrations of SDM (dog No.5, OS i/m, 4 hours p.i.): 43000 ng/mL
Serum concentrations of SDM (dog No.5, OS i/m, 7 hours p.i.): 53000 ng/mL
Serum concentrations of SDM (dog No.5, OS i/m, 24 hours p.i.): 42000 ng/mL
Serum concentrations of SDM (dog No.5, OS i/m, 28 hours p.i.): 41000 ng/mL
Serum concentrations of SDM (dog No.5, OS i/m, 31 hours p.i.): 43000 ng/mL
Serum concentrations of SDM (dog No.5, OS i/m, 48 hours p.i.): 34000 ng/mL
Serum concentrations of SDM (dog No.5, OS i/m, 55 hours p.i.): 25000 ng/mL
Serum concentrations of SDM (dog No.5, OS i/m, 72 hours p.i.): 20000 ng/mL
Serum concentrations of SDM (dog No.6, GF s/c, 0 hours p.i.): 0 ng/mL
Serum concentrations of SDM (dog No.6, GF s/c, 1 hours p.i.): 26000 ng/mL
Serum concentrations of SDM (dog No.6, GF s/c, 4 hours p.i.): 79000 ng/mL
Serum concentrations of SDM (dog No.6, GF s/c, 7 hours p.i.): 94000 ng/mL
Serum concentrations of SDM (dog No.6, GF s/c, 24 hours p.i.): 56000 ng/mL
Serum concentrations of SDM (dog No.6, GF s/c, 28 hours p.i.): 47000 ng/mL
Serum concentrations of SDM (dog No.6, GF s/c, 31 hours p.i.): 45000 ng/mL
Serum concentrations of SDM (dog No.6, GF s/c, 48 hours p.i.): 34000 ng/mL
Serum concentrations of SDM (dog No.6, GF s/c, 55 hours p.i.): 21000 ng/mL
Serum concentrations of SDM (dog No.6, GF s/c, 72 hours p.i.): 10000 ng/mL
Structure (SMILES): COc1cc(NS(=O)(=O)c2ccc(N)cc2)nc(OC)n1 [SDM, sulphadimethoxine]
